Square brackets hold non-standard residues; d marks the D form. Peptide text beside a SMILES is read from it. Phe(4-Cl) = N[C@@H](Cc1ccc(Cl)cc1)C(=O)O; Cha = N[C@@H](CC1CCCCC1)C(=O)O

The target of this test is T1, Androgen receptor (Homo sapiens, UniProt P10275).
T1 sequence (P10275 whole entry): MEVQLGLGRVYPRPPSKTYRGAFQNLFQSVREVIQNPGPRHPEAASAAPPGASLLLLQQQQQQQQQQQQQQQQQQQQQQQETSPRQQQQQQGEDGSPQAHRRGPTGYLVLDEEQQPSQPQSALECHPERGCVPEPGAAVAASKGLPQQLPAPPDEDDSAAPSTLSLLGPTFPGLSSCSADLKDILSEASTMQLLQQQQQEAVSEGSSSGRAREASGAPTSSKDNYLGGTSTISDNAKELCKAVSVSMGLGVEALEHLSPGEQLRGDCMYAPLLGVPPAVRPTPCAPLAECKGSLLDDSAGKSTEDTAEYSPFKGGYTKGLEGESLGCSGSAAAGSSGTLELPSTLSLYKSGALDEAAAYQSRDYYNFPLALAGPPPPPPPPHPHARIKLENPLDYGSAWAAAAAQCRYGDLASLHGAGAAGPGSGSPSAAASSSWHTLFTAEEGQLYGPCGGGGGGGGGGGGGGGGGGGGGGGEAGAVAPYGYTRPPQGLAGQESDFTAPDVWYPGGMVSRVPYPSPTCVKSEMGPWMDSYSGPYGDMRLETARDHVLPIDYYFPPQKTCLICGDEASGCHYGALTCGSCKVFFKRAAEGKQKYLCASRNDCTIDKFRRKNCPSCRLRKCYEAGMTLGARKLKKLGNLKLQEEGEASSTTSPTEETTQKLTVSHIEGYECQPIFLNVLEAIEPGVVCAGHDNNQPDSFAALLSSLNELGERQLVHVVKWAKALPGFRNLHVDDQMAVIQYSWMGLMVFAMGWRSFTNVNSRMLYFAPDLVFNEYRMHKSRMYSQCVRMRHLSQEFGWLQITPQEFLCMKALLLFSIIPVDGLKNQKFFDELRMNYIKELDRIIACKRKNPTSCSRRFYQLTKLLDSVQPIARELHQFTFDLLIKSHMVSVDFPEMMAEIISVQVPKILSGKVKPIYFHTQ
The experiment in a line: Displacement of fluorescein-CSSRFESLFAGEKESR from human androgen receptor-LBD after 1 hr by fluorescence polarization assay.
As for `CC[C@H](C)[C@H](NC(=O)[C@H](CS)NC(=O)[C@H](Cc1ccccc1)NC(=O)[C@H](CC(C)C)NC(=O)[C@H](CCCCN)NC(=O)[C@H](CS)NC(=O)[C@H](Cc1ccccc1)NC(=O)[C@H](CCCNC(=N)N)NC(=O)[C@@H](N)CC(N)=O)C(=O)N[C@@H](CCC(N)=O)C(=O)NCC(=O)N[C@H](C(=O)NCC(=O)N[C@@H](CC(=O)O)C(=O)N[C@H](C(=O)N[C@@H](CCCCN)C(=O)N[C@@H](C)C(=O)N[C@@H](CS)C(=O)N[C@@H](CCC(=O)O)C(=O)N[C@@H](Cc1c[nH]c2ccccc12)C(=O)N[C@@H](C)C(=O)N[C@@H](CS)C(=O)N[C@@H](CCC(N)=O)C(=O)O)C(C)C)[C@@H](C)O` (H-NRFCKLFCIQGTGDVKACEWACQ-OH), the Ki came out at 2700 nM.
To `CC(C)C[C@H](NC(=O)[C@H](CS)NC(=O)[C@H](CC(N)=O)NC(=O)[C@H](CC1CCCCC1)NC(=O)[C@H](Cc1ccc(O)cc1)NC(=O)[C@H](CS)NC(=O)[C@H](C)N)C(=O)N[C@@H](Cc1ccccc1)C(=O)N[C@@H](CCC(=O)O)C(=O)NCC(=O)N[C@@H](CC(N)=O)C(=O)N[C@@H](CC(=O)O)C(=O)N[C@@H](CCC(=O)O)C(=O)N[C@@H](CCC(=O)O)C(=O)N[C@H](C(=O)N[C@@H](CS)C(=O)N[C@@H](CCCCN)C(=O)N[C@@H](CCC(=O)O)C(=O)N[C@@H](Cc1c[nH]c2ccccc12)C(=O)N[C@@H](CS)C(=O)O)[C@@H](C)O` (H-ACY[Cha]NCLFEGNDEETCKEWC-OH) belongs 3000 nM; to `CC[C@H](C)[C@H](NC(=O)[C@H](CS)NC(=O)[C@H](Cc1ccccc1)NC(=O)[C@H](CC(C)C)NC(=O)[C@H](CCC(=O)O)NC(=O)[C@H](CS)NC(=O)[C@H](Cc1ccccc1)NC(=O)[C@H](CCCNC(=N)N)NC(=O)[C@@H](N)CC(N)=O)C(=O)N[C@@H](CCC(=O)O)C(=O)NCC(=O)N[C@H](C(=O)NCC(=O)N[C@@H](CC(=O)O)C(=O)N[C@H](C(=O)N[C@@H](CCCCN)C(=O)N[C@@H](C)C(=O)N[C@@H](CS)C(=O)N[C@@H](CCC(=O)O)C(=O)N[C@@H](Cc1c[nH]c2ccccc12)C(=O)N[C@@H](C)C(=O)N[C@@H](CS)C(=O)N[C@@H](CCC(N)=O)C(=O)O)C(C)C)[C@@H](C)O` (H-NRFCELFCIEGTGDVKACEWACQ-OH), 2100 nM; to `CC[C@H](C)[C@H](NC(=O)[C@H](CS)NC(=O)[C@H](Cc1ccccc1)NC(=O)[C@H](CC(C)C)NC(=O)[C@H](CCC(=O)O)NC(=O)[C@H](CS)NC(=O)[C@H](Cc1ccccc1)NC(=O)[C@H](CCCNC(=N)N)NC(=O)[C@@H](N)CC(N)=O)C(=O)N[C@@H](CCC(N)=O)C(=O)NCC(=O)N[C@H](C(=O)NCC(=O)N[C@@H](CC(=O)O)C(=O)N[C@H](C(=O)N[C@@H](CCCCN)C(=O)N[C@@H](C)C(=O)N[C@@H](CS)C(=O)N[C@@H](CCC(=O)O)C(=O)N[C@@H](CCC(=O)O)C(=O)N[C@@H](C)C(=O)N[C@@H](CS)C(=O)N[C@@H](CCC(N)=O)C(=O)O)C(C)C)[C@@H](C)O` (H-NRFCELFCIQGTGDVKACEEACQ-OH), 1300 nM.
As for `CC[C@H](C)[C@H](NC(=O)[C@H](CS)NC(=O)[C@H](Cc1ccccc1)NC(=O)[C@H](CCSC)NC(=O)[C@H](CCC(=O)O)NC(=O)[C@H](CS)NC(=O)[C@H](Cc1ccccc1)NC(=O)[C@H](CCCNC(=N)N)NC(=O)[C@@H](N)CC(N)=O)C(=O)N[C@@H](CCC(N)=O)C(=O)NCC(=O)N[C@H](C(=O)NCC(=O)N[C@@H](CC(=O)O)C(=O)N[C@H](C(=O)N[C@@H](CCCCN)C(=O)N[C@@H](C)C(=O)N[C@@H](CS)C(=O)N[C@@H](CCC(=O)O)C(=O)N[C@@H](Cc1c[nH]c2ccccc12)C(=O)N[C@@H](C)C(=O)N[C@@H](CS)C(=O)N[C@@H](CCC(N)=O)C(=O)O)C(C)C)[C@@H](C)O` (H-NRFCEMFCIQGTGDVKACEWACQ-OH), the figure is 4100 nM; as for `CC(C)C[C@H](NC(=O)[C@H](CS)NC(=O)[C@H](CC(N)=O)NC(=O)[C@H](Cc1ccc(Cl)cc1)NC(=O)[C@H](Cc1ccc(O)cc1)NC(=O)[C@H](CS)NC(=O)[C@H](C)N)C(=O)N[C@@H](Cc1ccccc1)C(=O)N[C@@H](CCC(=O)O)C(=O)NCC(=O)N[C@@H](CC(N)=O)C(=O)N[C@@H](CC(=O)O)C(=O)N[C@@H](CCC(=O)O)C(=O)N[C@@H](CCC(=O)O)C(=O)N[C@H](C(=O)N[C@@H](CS)C(=O)N[C@@H](CCCCN)C(=O)N[C@@H](CCC(=O)O)C(=O)N[C@@H](Cc1c[nH]c2ccccc12)C(=O)N[C@@H](CS)C(=O)O)[C@@H](C)O` (H-ACY[Phe(4-Cl)]NCLFEGNDEETCKEWC-OH), 3000 nM; as for `CC(C)C[C@H](NC(=O)[C@H](CS)NC(=O)[C@H](CC(N)=O)NC(=O)[C@H](Cc1ccccc1)NC(=O)[C@H](Cc1ccc(O)cc1)NC(=O)[C@H](CS)NC(=O)[C@H](C)N)C(=O)N[C@@H](Cc1ccccc1)C(=O)N[C@@H](CCC(=O)O)C(=O)NCC(=O)N[C@@H](CCC(=O)O)C(=O)N[C@@H](CC(=O)O)C(=O)N[C@@H](CCC(=O)O)C(=O)N[C@@H](CCC(=O)O)C(=O)N[C@H](C(=O)N[C@@H](CS)C(=O)N[C@@H](CCCCN)C(=O)N[C@@H](CCC(=O)O)C(=O)N[C@@H](Cc1c[nH]c2ccccc12)C(=O)N[C@@H](CS)C(=O)O)[C@@H](C)O` (H-ACYFNCLFEGEDEETCKEWC-OH), 200 nM.
As for `CC[C@H](C)[C@H](NC(=O)[C@H](CS)NC(=O)[C@H](Cc1ccccc1)NC(=O)[C@H](CC(C)C)NC(=O)[C@H](CCC(=O)O)NC(=O)[C@H](CS)NC(=O)[C@H](Cc1ccccc1)NC(=O)[C@H](CCCNC(=N)N)NC(=O)[C@@H](N)CC(N)=O)C(=O)N[C@@H](CCC(N)=O)C(=O)NCC(=O)N[C@H](C(=O)NCC(=O)N[C@@H](CC(=O)O)C(=O)N[C@H](C(=O)N[C@@H](CCCCN)C(=O)N[C@@H](C)C(=O)N[C@@H](CS)C(=O)N[C@@H](CCC(=O)O)C(=O)N[C@@H](Cc1c[nH]c2ccccc12)C(=O)N[C@@H](C)C(=O)N[C@@H](CS)C(=O)N[C@@H](CCC(N)=O)C(=O)O)C(C)C)[C@@H](C)O` (H-NRFCELFCIQGTGDVKACEWACQ-OH), the figure is 4100 nM.

In general, Ki refers to a dissociation constant, usually derived from enzyme kinetics or from competition with a known ligand.

For the origin of these results see ChEMBL document CHEMBL3132744, “Structureactivity relationship studies of miniproteins targeting the androgen receptorcoactivator interaction” (Medchemcomm, 2013).
